Experimental data: patent EP4553077A1 (Kinoteck Therapeutics Co., Ltd, priority 2022, dated 2024)

How the values were obtained:
Ba/F3-TEL-FGFR2 = Ba/F3-TEL-FGFR2 (Homo sapiens, UniProt P21802+P41212); experiment: Cell viability (proliferation inhibition) of Ba/F3 cells, CellTiter Glo; conditions: read-out: Ba/F3 cell FGFR2 (IC50 nM), 72 h
Ba/F3-TEL-FGFR1 = Ba/F3-TEL-FGFR1 (Homo sapiens, UniProt P11362+P41212); experiment: as above; conditions: read-out: Ba/F3 cell FGFR1 (IC50 nM), 72 h
Sequence of Ba/F3-TEL-FGFR1 (P11362 478-767 limits assumed, one chain of several): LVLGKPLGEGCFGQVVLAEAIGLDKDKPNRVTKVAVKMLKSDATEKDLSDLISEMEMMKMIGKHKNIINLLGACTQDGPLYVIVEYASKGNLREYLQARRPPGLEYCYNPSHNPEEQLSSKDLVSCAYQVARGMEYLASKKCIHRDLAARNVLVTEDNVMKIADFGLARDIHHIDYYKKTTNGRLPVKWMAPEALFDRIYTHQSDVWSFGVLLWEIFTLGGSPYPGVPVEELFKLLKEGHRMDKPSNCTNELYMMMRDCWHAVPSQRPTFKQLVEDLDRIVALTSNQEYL

Sequence of Ba/F3-TEL-FGFR2 (P21802 481-770 limits assumed, one chain of several): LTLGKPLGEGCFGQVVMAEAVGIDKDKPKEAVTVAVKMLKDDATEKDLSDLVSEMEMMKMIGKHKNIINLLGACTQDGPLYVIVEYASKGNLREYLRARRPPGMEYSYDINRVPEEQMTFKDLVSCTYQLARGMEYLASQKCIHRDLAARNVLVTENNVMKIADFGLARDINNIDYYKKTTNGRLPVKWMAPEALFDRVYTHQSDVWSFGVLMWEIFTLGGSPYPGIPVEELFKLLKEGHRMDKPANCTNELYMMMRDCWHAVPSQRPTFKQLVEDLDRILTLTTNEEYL

Compound | IC50 (Ba/F3-TEL-FGFR2) [nM] | IC50 (Ba/F3-TEL-FGFR1) [nM]
[2H]C([2H])([2H])n1c(-c2ccc(NC(=O)C(=C)C)cc2F)c(-c2ccc(N=S3(=O)CCCC3)c(Cl)c2)c2c(N)ncnc21 [Compound 82, N-(4-(4-amino-5-(3-chloro-4-((1-oxidetetrahydro-1λ^6-thiophene-1-ylidene)amino)phenyl)-7-(methyl-d3)-7H-pyrrolo[2,3-d]pyrimidin-6-yl)-3-fluorophenyl) methacrylamide] | 0.8 | 484
[2H]C([2H])([2H])n1c(-c2ccc(NC(=O)C(=C)C)cc2Cl)c(-c2ccc(N=S3(=O)CCC3)c(F)c2)c2c(N)ncnc21 [Compound 84, N-(4-(4-amino-5-(3-fluoro-4-(1-oxo-1λ^6-thietan-1-imino)phenyl)-7-(methyl-d3)-7H-pyrrolo[2,3-d]pyrimidin-6-yl)-3-chlorophenyl)methacrylamide] | 0.8 | 250
C=C(C)C(=O)Nc1ccc(-c2c(-c3ccc(N=S4(=O)CCCC4)cc3)c3c(N)ncnc3n2C)cc1 [Compound 31] | 8.3 | 2090
C=C(C)C(=O)Nc1ccc(-c2c(-c3ccc(N=S(C)(C)=O)cc3)c3c(N)ncnc3n2C)c(F)c1 [Compound 107] | 15.6 | 3630
C=C(C)C(=O)Nc1ccc(-c2c(-c3ccc(N=S4(=O)CCCC4)c(F)c3)c3c(N)ncnc3n2C)c(C(F)F)c1 [Compound 59, N-(4-(4-amino-5-(3-fluoro-4-((1-oxotetrahydro-1 λ^6-thiophene-1-ylidene)amino)phenyl) -7-methyl-7H-pyrrolo [2,3-d]pyrimidin-6-yl) -3-(difluoromethyl)phenyl) methacrylamide] | 7.8 | 1320
C=C(C)C(=O)Nc1ccc(-c2c(-c3ccc(N=S4(=O)CCC4)c(F)c3)c3c(N)ncnc3n2C)c(C)c1 [Compound 70] | 2.7 | 775
C=C(C)C(=O)Nc1ccc(-c2c(-c3ccc(N=S4(=O)CCCC4)c(C(F)F)c3)c3c(N)ncnc3n2C)c(F)c1 [Compound 89, N-(4-(4-amino-5-(3-(difluoromethyl) -4-((1-tetrahydro-1λ^6-thiophene-1-ylidene)amino)phenyl) -7-methyl-7H-pyrrolo [2,3-d]pyrimidin-6-yl) -3-fluorophenyl) methacrylamide] | 6.5 | 686
[2H]C([2H])([2H])n1c(-c2ccc(NC(=O)C(=C)C)cc2Cl)c(-c2ccc(N=S3(=O)CCC3)c(Cl)c2)c2c(N)ncnc21 [Compound 95, N-(4-(4-amino-5-(3-chloro-4-((1-oxo-1 λ^6-thietan-1-ylidene)amino)phenyl) -7-(methyl-d3) -7H-pyrrolo [2,3-d]pyrimidin-6-yl) -3-chlorophenyl) methacrylamide] | 0.7 | 484
C=C(C)C(=O)Nc1ccc(-c2c(-c3ccc(N=S4(=O)CCCC4)c(C)c3)c3c(N)ncnc3n2C)c(F)c1 [Compound 87, N-(4-(4-amino-7-methyl-5-(3-methyl-4-((1-tetrahydro-1λ^6-thiophene-1-ylidene)amino)phenyl) -7H-pyrrolo [2,3-d]pyrimidin-6-yl) -3-fluorophenyl) methacrylamide] | 2.1 | 666
C=C(C)C(=O)Nc1ccc(-c2c(-c3cc(F)c(N=S4(=O)CCC4)cc3F)c3c(N)ncnc3n2C)c(F)c1 [Compound 77, N-(4-(4-amino-5-(2,5-difluoro-4-((1-oxo-1λ^6-thiocyclobutan-1-ylidene)amino)phenyl) -7-methyl-7H-pyrrolo [2,3-d]pyrimidin-6-yl) -3-fluorophenyl) methacrylamide] | 4.7 | 884
C/C=C/C(=O)Nc1ccc(-c2c(-c3ccc(N=S4(=O)CCCCC4)c(F)c3)c3c(N)ncnc3n2C)cc1 [Compound 15, (E)-N-(4-(4-amino-5-(3-fluoro-4-((1-oxotetrahydro-2H-1λ^6-thiopyran-1-ylidene)amino)phenyl)-7-methyl-7H-pyrrolo [2,3-d]pyrimidin-6-yl) -phenyl)-2-butenamide] | 15.4 | 
C=C(C)C(=O)Nc1ccc(-c2c(-c3ccc(N=S(=O)(NCC)C(F)(F)F)c(F)c3)c3c(N)ncnc3n2C)cc1 (stereo not drawn) [Compound 71, N-(4-(4-amino-5-(4-(((ethylamino)(oxo)(trifluoromethyl)-1 λ^6-sulfaneylidene)amino)-3-fluorophenyl)-7-methyl-7H-pyrrolo[2,3-d]pyrimidin-6-yl)phenyl) methacrylamide] | 2.5 | 
C=C(C)C(=O)Nc1ccc(-c2c(-c3ccc(N=S4(=O)CCCCC4)c(F)c3)c3c(N)ncnc3n2C)cc1F [Compound 37, N-(4-(4-amino-5-(3-fluoro-4-((1-oxotetrahydro-2H-1 λ^6-thiopyran-1-ylidene)amino)phenyl) -7-methyl-7H-pyrrolo [2,3-d]pyrimidin-6-yl) -2-fluorophenyl) methacrylamide] | 32 | 
C=C(C)C(=O)Nc1ccc(-c2c(-c3ccc(N=S4(=O)CCCC4)cc3)c3c(N)ncnc3n2CC(C)(C)O)c(F)c1 [Compound 79, N-(4-(4-amino-7-(2-hydroxy-2-methylpropyl)-5-(4-((1-hydroperoxid-1λ^6-thiophene-1-ylidene)amino)phenyl) -7H-pyrrolo [2,3-d]pyrimidin-6-yl) -3-fluorophenyl) methacrylamide] | 61.1 | 
[2H]C([2H])([2H])n1c(-c2ccc(NC(=O)C(=C)C)cc2F)c(-c2ccc(N=S3(=O)C=CC(C)(C)C3)cc2)c2c(N)ncnc21 (stereo not drawn) [Compound 108, N-(4-(4-amino-5-(4-((3,3-dimethyl-1-oxo-1 λ^6-thiophene-1-ylidene)amino)phenyl) -7-(methyl-d3) -7H-pyrrolo [2,3-d]pyrimidin-6-yl) -3-fluorophenyl) methacrylamide] | 2.5 | 
C=C(C)C(=O)Nc1ccc(-c2c(-c3ccc(N=S4(=O)CCCCC4)c(OC)c3)c3c(N)ncnc3n2C)c(F)c1 [Compound 5, N-(4-(4-amino-5-(3-methoxy-4-(1-oxotetrahydro-2H-1λ^6-thiopyran-1-imino)phenyl)-7-methyl-7H-pyrrolo [2,3-d]pyrimidin-6-yl)-3-fluorophenyl) methacrylamide] | 29.3 | 
C=C(C)C(=O)Nc1ccc(-c2c(-c3ccc(N=S4(=O)CCCCC4)c(C)c3)c3c(N)ncnc3n2C)cc1 [Compound 34, N-(4-(4-amino-7-methyl-5-(3-methyl-4-((1-oxotetrahydro-2H-1λ^6-thiopyran-1-ylidene)amino)phenyl) -7H-pyrrolo [2,3-d]pyrimidin-6-yl)phenyl) methacrylamide] | 17.9 | 
CC#CC1=Nc2ccc(-c3c(-c4ccc(N=S(C)(C)=O)c(F)c4)c4c(N)ncnc4n3C)cc2C(C)(C)O1 [Compound 19] | 2980 | 
C=C(C)C(=O)Nc1ccc(-c2c(-c3ccc(N=S4(=O)CCC4)c(F)c3)c3c(N)ncnc3n2C)c(F)c1 [Compound 75] | 0.8 | 701
C=C(C)C(=O)Nc1ccc(-c2c(-c3ccc(N=S4(=O)CCCC4)c(F)c3)c3c(N)ncnc3n2C)c(C#N)c1 [Compound 25, N-(4-(4-amino-5-(3-fluoro-4-((1-oxotetrahydro-1 λ^6-thiophene-1-ylidene)amino)phenyl) -7-methyl-7H-pyrrolo [2,3-d]pyrimidin-6-yl) -3-cyanophenyl) methacrylamide] | 38.7 | 
C=C(CN(C)C)C(=O)Nc1ccc(-c2c(-c3ccc(N=S4(=O)CCCC4)c(F)c3)c3c(N)ncnc3n2C)cc1 [Compound 92] | 0.8 | 
C=C(C)C(=O)Nc1cc(-c2c(-c3ccc(N=S4(=O)CCCCC4)c(F)c3)c3c(N)ncnc3n2C)ccc1F [Compound 38, N-(5-(4-amino-5-(3-fluoro-4-((1-oxotetrahydro-2H-1 λ^6-thiopyran-1-ylidene)amino)phenyl) -7-methyl-7H-pyrrolo [2,3-d]pyrimidin-6-yl) -2-fluorophenyl) methacrylamide] | 247 | 
C=CC(=O)Nc1ccc(-c2c(-c3ccc(N=S4(=O)CCCC4)cc3)c3c(N)ncnc3n2C)c(F)c1 [Compound 110] | 2 | 
C=C(C)C(=O)Nc1ccc(-c2c(-c3ccc(N=S(=O)(N(C)C)C(F)(F)F)cc3F)c3c(N)ncnc3n2C)cc1 (stereo not drawn) [Compound 52, N-(4-(4-amino-5-(4-(((dimethylamino) (oxo) (trifluoromethyl) -λ^6-sulfanylidene)amino) -2-fluorophenyl) -7-methyl-7H-pyrrolo [2,3-d]pyrimidin-6-yl)phenyl) methacrylamide] | 2.3 | 
C=C(C)C(=O)Nc1ccc(-c2c(-c3ccc(N=S4(=O)CCCCC4)c(F)c3)c3c(N)ncnc3n2C)cc1 [Compound 69, N-(4-(4-amino-5-(3-fluoro-4-((1-oxotetrahydro-2H-1λ^6-thiopyran-1-ylidene)amino)phenyl) -7-methyl-7H-pyrrolo [2,3-d]pyrimidin-6-yl)phenyl) methacrylamide] | 11.4 | 
C=C(C)C(=O)Nc1ccc(-c2c(-c3ccc(N=S(=O)(CC)CC)c(F)c3)c3c(N)ncnc3n2C)c(C)c1 [Compound 101] | 4.7 | 
[2H]C([2H])([2H])n1c(-c2ccc(NC(=O)C(=C)C)cc2F)c(-c2ccc(N=S(C)(=O)c3ccccc3)c(F)c2)c2c(N)ncnc21 (stereo not drawn) [Compound 96, N-(4-(4-amino-5-(3-fluoro-4-((methyl (oxo) (phenyl) - λ^6-sulfaneylidene)amino)phenyl) -7-(methyl-d3) -7H-pyrrolo [2,3-d]pyrimidin-6-yl) -3-fluorophenyl) methacrylamide] | 29.8 | 
C=C(C)C(=O)Nc1ccc(-c2c(-c3ccc(N=S4(=O)CCCCC4)nc3)c3c(N)ncnc3n2C)cc1 [Compound 17, N-[4-(4-amino-7-methyl-5-(6-((1-oxotetrahydro-2H-1 λ^6-thiopyran-1-ylidene)amino)pyridin-3-yl)pyrrolo [2,3-d]pyrimidin-6-yl)phenyl) methacrylamide] | 4620 | 
